# Assay results from patent US9790215B2 (FLATLEY DISCOVERY LAB, LLC, priority 2013, dated 2017).
# Molecular target: T1, human ΔF508-CFTR (Homo sapiens, UniProt P13569, DEL508-508)
# T1 construct: expressed in transfected cells
# Assay: CFTR-YFP High Throughput Assay (YFP halide flux in FRT cells)
# Format: cell-based
# Conditions: FRT cells expressing human ΔF508-CFTR and YFP; Emax normalized to the positive control
# How it was run: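 FRT cells stably co-expressing human ΔF508-CFTR and halide-sensitive YFP-H148Q/I152L were treated with compound […] for 24–26 h at 37 °C (corrector mode), washed, then stimulated with 20 μM forskolin plus 30 μM potentiator P3 for 60–120 min at room temperature. Iodide-induced YFP quench (ex 500/em 540 nm) rates came from least-squares fitting.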
# T1 sequence (P13569 with tags, fused parts or gaps DEL508-508): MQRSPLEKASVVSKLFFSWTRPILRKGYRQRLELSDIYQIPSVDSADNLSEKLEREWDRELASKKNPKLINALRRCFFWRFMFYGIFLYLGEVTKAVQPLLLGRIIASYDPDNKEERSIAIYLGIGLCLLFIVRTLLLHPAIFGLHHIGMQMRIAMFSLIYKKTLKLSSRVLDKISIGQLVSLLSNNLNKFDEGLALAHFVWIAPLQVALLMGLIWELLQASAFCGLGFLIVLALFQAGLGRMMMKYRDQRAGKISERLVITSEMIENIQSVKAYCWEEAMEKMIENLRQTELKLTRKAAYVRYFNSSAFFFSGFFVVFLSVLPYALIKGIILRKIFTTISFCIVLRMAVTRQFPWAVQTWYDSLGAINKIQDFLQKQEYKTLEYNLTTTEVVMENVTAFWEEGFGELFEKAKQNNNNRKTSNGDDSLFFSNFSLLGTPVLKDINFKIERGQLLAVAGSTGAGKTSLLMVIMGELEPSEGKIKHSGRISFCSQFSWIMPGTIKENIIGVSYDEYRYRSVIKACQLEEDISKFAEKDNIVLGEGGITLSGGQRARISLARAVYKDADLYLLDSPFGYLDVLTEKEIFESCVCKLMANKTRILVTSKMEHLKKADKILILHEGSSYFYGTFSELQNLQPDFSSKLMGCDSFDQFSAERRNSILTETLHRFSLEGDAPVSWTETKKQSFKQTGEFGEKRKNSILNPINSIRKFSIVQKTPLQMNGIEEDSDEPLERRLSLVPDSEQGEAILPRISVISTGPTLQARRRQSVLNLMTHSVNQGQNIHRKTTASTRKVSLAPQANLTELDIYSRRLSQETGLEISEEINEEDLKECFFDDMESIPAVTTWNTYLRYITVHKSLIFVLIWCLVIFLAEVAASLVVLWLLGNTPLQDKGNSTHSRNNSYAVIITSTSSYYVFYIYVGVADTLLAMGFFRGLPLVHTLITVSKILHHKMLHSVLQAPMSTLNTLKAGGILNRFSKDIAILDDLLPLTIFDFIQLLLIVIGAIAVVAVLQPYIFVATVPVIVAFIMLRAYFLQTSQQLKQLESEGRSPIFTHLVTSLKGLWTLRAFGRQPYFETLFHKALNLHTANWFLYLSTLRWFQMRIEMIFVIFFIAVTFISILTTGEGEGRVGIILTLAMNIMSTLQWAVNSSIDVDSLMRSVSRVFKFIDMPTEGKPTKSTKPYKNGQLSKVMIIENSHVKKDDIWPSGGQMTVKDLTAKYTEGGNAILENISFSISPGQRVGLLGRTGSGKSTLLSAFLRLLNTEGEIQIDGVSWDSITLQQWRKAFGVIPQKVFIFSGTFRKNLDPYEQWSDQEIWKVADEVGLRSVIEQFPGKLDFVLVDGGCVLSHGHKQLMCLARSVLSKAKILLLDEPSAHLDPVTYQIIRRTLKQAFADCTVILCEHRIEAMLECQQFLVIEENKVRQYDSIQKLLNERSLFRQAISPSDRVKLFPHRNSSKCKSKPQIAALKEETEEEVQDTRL
row,% Efficacy (Emax normalized to the positive control),Molecule
1,++ (a range of 80%-30%),N-ethyl-N-(4-ethylphenyl)-2-(1-oxo-4-(4-sulfamoylphenyl)phthalazin-2(1H)-yl)acetamide [Example 12]
2,++ (a range of 80%-30%),"methyl 4-(3-(2-(ethyl(4-ethylphenyl)amino)-2-oxoethyl)-4-oxo-3,4-dihydrophthalazin-1-yl)benzoate [Example 14]"
3,++ (a range of 80%-30%),"N-(2,2-difluorobenzo[d][1,3]dioxol-5-yl)-N-ethyl-2-(1-oxo-4-(pyridin-3-yl)phthalazin-2(1H)-yl)acetamide [Example 23]"
4,++ (a range of 80%-30%),"N-(2,2-difluorobenzo[d][1,3]dioxol-5-yl)-N-ethyl-2-(4-(3-fluorophenyl)-1-oxophthalazin-2(1H)-yl)acetamide [Example 22]"

# Same assay, conditions: FRT cells expressing human ΔF508-CFTR and YFP; forskolin stimulated
row,EC50,Molecule
1,10 to 20 µM,"CCN(C(=O)c1nn(-c2ccc(C)cc2)c(=O)c2c1c1ccccc1n2C1CCC1)c1ccccc1 [Example 146, 5-cyclobutyl-N-ethyl-4-oxo-N-phenyl-3-p-tolyl-4,5-dihydro-3H-pyridazino[4,5-b]indole-1-carboxamide]"
2,< 10 µM,"CCN(C(=O)c1nn(C2CCN(Cc3ccccc3)CC2)c(=O)c2c1c1ccccc1n2C)c1ccccc1 [Example 137, 3-(1-benzylpiperidin-4-yl)-N-ethyl-5-methyl-4-oxo-N-phenyl-4,5-dihydro-3H-pyridazino[4,5-b]indole-1-carboxamide]"
3,< 10 µM,"CCN(C(=O)Cn1nc(-c2ccc(C(N)=O)cc2)c2ccc(OC)cc2c1=O)c1ccc2nc(C)oc2c1 [Example 77, 4-(3-(2-(ethyl(2-methylbenzo[d]oxazol-6-yl)amino)-2-oxoethyl)-6-methoxy-4-oxo-3,4-dihydrophthalazin-1-yl)benzamide]"
4,> 20 µM,N-ethyl-N-(4-ethylphenyl)-2-(1-oxo-4-(4-sulfamoylphenyl)phthalazin-2(1H)-yl)acetamide [Example 12]
5,< 10 µM,"COc1ccc2c(-c3cccc(C#N)c3)nn(CC(=O)N(c3ccc4c(c3)OC(F)(F)O4)C(C)C)c(=O)c2c1 [Example 70, 2-(4-(3-cyanophenyl)-7-methoxy-1-oxophthalazin-2(1H)-yl)-N-(2,2-difluorobenzo[d][1,3]dioxol-5-yl)-N-isopropylacetamide]"
6,< 10 µM,"CCN(C(=O)Cn1nc(-c2ccc(C(N)=O)cc2)c2ccc(OC)cc2c1=O)c1ccc2c(c1)OC(F)(F)O2 [Example 75, 4-(3-(2-((2,2-difluorobenzo[d][1,3]dioxol-5-yl)(ethyl)amino)-2-oxoethyl)-6-methoxy-4-oxo-3,4-dihydrophthalazin-1-yl)benzamide]"
7,> 20 µM,"CCN(C(=O)c1nn(-c2ccc(C)cc2)c(=O)c2c1c1ccccc1n2CC(=O)O)c1ccccc1 [Example 151, 2-(1-(ethyl(phenyl)carbamoyl)-4-oxo-3-(p-tolyl)-3H-pyridazino[4,5-b]indol-5(4H)-yl)acetic acid]"
8,< 10 µM,"CCN(C(=O)Cn1ncc2c(c1=O)c1ccccc1n2Cc1ccccc1)c1ccc2c(c1)OC(F)(F)O2 [Example 87, 2-(5-benzyl-1-oxo-1H-pyridazino[4,5-b]indol-2(5H)-yl)-N-(2,2-difluorobenzo[d][1,3]dioxol-5-yl)-N-ethylacetamide]"
9,< 10 µM,CCN(C(=O)Cn1nc(Cc2cccnc2)c2cc(OC)c(OC)cc2c1=O)c1ccc2c(c1)OC(F)(F)O2 [Example 44]
10,10 to 20 µM,"CCN(C(=O)c1nn(-c2nc3ccccc3s2)c(=O)c2c1c1ccccc1n2C)c1ccccc1 [Example 123, 3-(benzo[d]thiazol-2-yl)-N-ethyl-5-methyl-4-oxo-N-phenyl-4,5-dihydro-3H-pyridazino[4,5-b]indole-1-carboxamide]"
11,< 10 µM,"CCOc1cccc2c(Cc3cccnc3)nn(CC(=O)N(CC)c3ccc4c(c3)OC(F)(F)O4)c(=O)c12 [Example 57, N-(2,2-difluorobenzo[d][1,3]dioxol-5-yl)-N-ethyl-2-(8-ethoxy-1-oxo-4-(pyridin-3-ylmethyl)phthalazin-2(1H)-yl)acetamide]"
12,10 to 20 µM,"CCc1ccc(N(CC)C(=O)Cn2nc(Cc3cccnc3)c3ncccc3c2=O)cc1 [Example 43, N-ethyl-N-(4-ethylphenyl)-2-(5-oxo-8-(pyridin-3-ylmethyl)pyrido[2,3-d]pyridazin-6(5H)-yl)acetamide]"
13,< 10 µM,"CCN(C(=O)c1nn(-c2ccc(C)cc2)c(=O)c2c1c1ccccc1n2C)c1cccnc1 [Example 108, N-ethyl-5-methyl-4-oxo-N-(pyridin-3-yl)-3-(p-tolyl)-4,5-dehydro-3H-pyridazino[4,5-b]indole-1-carboxamide]"
14,< 10 µM,"CCN(C(=O)Cn1ncc2c(c1=O)c1ccccc1n2Cc1cccc(C#N)c1)c1ccc2c(c1)OC(F)(F)O2 [Example 96, 2-(5-(3-cyanobenzyl)-1-oxo-1H-pyridazino[4,5-b]indol-2(5H)-yl)-N-(2,2-difluorobenzo[d][1,3]dioxol-5-yl)-N-ethylacetamide]"
15,> 20 µM,"methyl 4-(3-(2-(ethyl(4-ethylphenyl)amino)-2-oxoethyl)-4-oxo-3,4-dihydrophthalazin-1-yl)benzoate [Example 14]"
16,10 to 20 µM,"CCc1ccc(N(CC)C(=O)Cn2nc(-c3cccc4ncccc34)c3ccccc3c2=O)cc1 [Example 5, N-ethyl-N-(4-ethylphenyl)-2-(1-oxo-4-(quinolin-5-yl)phthalazin-2(1H)-yl)acetamide]"
17,> 20 µM,"CCc1ccc(N(CC)C(=O)Cn2nc(Cc3cccnc3)c3cnccc3c2=O)cc1 [Example 42, N-ethyl-N-(4-ethylphenyl)-2-(1-oxo-4-(pyridin-3-ylmethyl)pyrido[3,4-d]pyridazin-2(1H)-yl)acetamide]"

row,EC50,Molecule
1,10 to 20 µM,"N-(2,2-difluorobenzo[d][1,3]dioxol-5-yl)-N-ethyl-2-(1-oxo-4-(pyridin-3-yl)phthalazin-2(1H)-yl)acetamide [Example 23]"
2,< 10 µM,"COc1ccc2c(-c3ccc(S(N)(=O)=O)cc3)nn(CC(=O)N(c3ccc4c(c3)OC(F)(F)O4)C(C)C)c(=O)c2c1 [Example 69, N-(2,2-difluorobenzo[d][1,3]dioxol-5-yl)-N-isopropyl-2-(7-methoxy-1-oxo-4-(4-sulfamoyl-phenyl)phthalazin-2(1H)-yl)acetamide]"
3,10 to 20 µM,"CCc1ccc(N(CC)C(=O)Cn2nc(-c3ccccc3)c3ccccc3c2=O)cc1 [Example 1, N-ethyl-N-(4-ethylphenyl)-2-(1-oxo-4-phenylphthalazin-2(1H)-yl)acetamide]"
4,< 10 µM,"CCN(C(=O)Cn1nc(Cc2cccnc2)c2ccc(Cl)cc2c1=O)c1ccc2c(c1)OC(F)(F)O2 [Example 54, 2-(7-chloro-1-oxo-4-(pyridin-3-ylmethyl)phthalazin-2(1H)-yl)-N-(2,2-difluorobenzo[d][1,3]dioxol-5-yl)-N-ethylacetamide]"
5,< 10 µM,"COc1ccc(N(C)C(=O)Cn2nc(Cc3cccnc3)c3ccccc3c2=O)cc1 [Example 27, N-(4-methoxyphenyl)-N-methyl-2-(1-oxo-4-(pyridin-3-ylmethyl)phthalazin-2(1H)-yl)acetamide]"
6,< 10 µM,"N-(2,2-difluorobenzo[d][1,3]dioxol-5-yl)-N-ethyl-2-(4-(3-fluorophenyl)-1-oxophthalazin-2(1H)-yl)acetamide [Example 22]"
7,< 10 µM,"CCc1ccc(N(CC)C(=O)Cn2nc(C(=O)N(CC)c3cccc(Cl)c3)c3c4ccccc4n(C)c3c2=O)cc1 [Example 142, N-(3-chlorophenyl)-N-ethyl-3-(2-(ethyl(4-ethylphenyl)amino)-2-oxoethyl)-5-methyl-4-oxo-4,5-dihydro-3H-pyridazino[4,5-b]indole-1-carboxamide]"
8,< 10 µM,"CCN(C(=O)Cn1ncc2c([nH]c3ccccc32)c1=O)c1ccc2c(c1)OC(F)(F)O2 [Example 149, N-(2,2-difluorobenzo[d][1,3]dioxol-5-yl)-N-ethyl-2-(4-oxo-4,5-dihydro-3H-pyridazino[4,5-b]indol-3-yl)acetamide]"
9,< 10 µM,"CCc1ccc(N(CC)C(=O)Cn2nc(Cc3cccnc3)c3ccc(C(C)(C)C)cc3c2=O)cc1 [Example 33, 2-(7-(tert-butyl)-1-oxo-4-(pyridin-3-ylmethyl)phthalazin-2(1H)-yl)-N-ethyl-N-(4-ethylphenyl)acetamide]"
10,< 10 µM,"CCN(C(=O)c1nn(-c2ccc(C)cc2)c(=O)c2[nH]c3ccccc3c12)c1ccccc1 [Example 147, N-Ethyl-4-oxo-N-phenyl-3-p-tolyl-4,5-dihydro-3H-pyridazino[4,5-b]indole-1-carboxamide]"
11,< 10 µM,"CCN(C(=O)Cn1nc(C(=O)Nc2cc(Cl)ccc2C(=O)O)c2ccccc2c1=O)c1ccc2c(c1)OC(F)(F)O2 [Example 79, 4-chloro-2-(3-(2-((2,2-difluorobenzo[d][1,3]dioxol-5-yl)(ethyl)amino)-2-oxoethyl)-4-oxo-3,4-dihydrophthalazine-1-carboxamido)benzoic acid]"
12,< 10 µM,"CCN(C(=O)c1nn(C2CCCCC2)c(=O)c2c1c1ccccc1n2C)c1cccc(Cl)c1 [Example 143, N-(3-chlorophenyl)-3-cyclohexyl-N-ethyl-5-methyl-4-oxo-4,5-dihydro-3H-pyridazino[4,5-b]indole-1-carboxamide]"
13,< 10 µM,"Cc1ccc(-n2nc(C(=O)Nc3cc(Cl)ccc3C(=O)O)c3c4ccccc4n(C)c3c2=O)cc1 [Example 135, 4-chloro-2-(5-methyl-4-oxo-3-(p-tolyl)-4,5-dihydro-3H-pyridazino[4,5-b]indole-1-carboxamido)benzoic acid]"
14,> 20 µM,"CCN(C(=O)c1nn(-c2nc3ccccc3n2C)c(=O)c2c1c1ccccc1n2C)c1ccccc1 [Example 124, N-ethyl-5-methyl-3-(1-methyl-1H-benzo[d]imidazol-2-yl)-4-oxo-N-phenyl-4,5-dihydro-3H-pyridazino[4,5-b]indole-1-carboxamide]"
15,< 10 µM,"CCc1ccc(N(CC)C(=O)Cn2nc(Cc3cccnc3)c3cc(C)ccc3c2=O)cc1 [Example 29, N-ethyl-N-(4-ethylphenyl)-2-(6-methyl-1-oxo-4-(pyridin-3-ylmethyl)phthalazin-2(1H)-yl)acetamide]"
16,< 10 µM,"CCN(C(=O)Cn1ncc2c(c1=O)c1ccccc1n2CCOC)c1ccc2c(c1)OC(F)(F)O2 [Example 86, N-(2,2-difluorobenzo[d] [1,3]dioxol-5-yl)-N-ethyl-2-(5-(2-methoxyethyl)-1-oxo-1H-pyridazino[4,5-b]indol-2(5H)-yl)acetamide]"
